Measured values from US5821219A (priority 1995, dated 1998).

Experiments:
[1] = biological target: T1, novel mammalian opioid receptor (LC132, MSOR, OFQR) (Rattus norvegicus, UniProt P35370); test: biochemical; assay type: binding
T1 construct: The entire coding region of the receptor cDNA insert was subcloned into the RcRSV vector; expressed in transfected cells

mice [2] = test: Reversal of morphine analgesia, 49° C. tail withdrawal latency; assay type: in vivo, mouse; conditions: morphine sulfate 5 mg/kg sc
mice [3] = test: Morphine hypothermia and Straub tail in DBA/2J mice
mice [4] = test: Acetic acid abdominal constriction (writhing) test; assay type: in vivo, mouse; conditions: NAL 1 mg/kg and 10 mg/kg sc
Description: The AC assay was a modification of the technique originally described by Koster et al. Mice (N=9-15 per group) were acclimated to individual cylindrical Plexiglass observation chambers for >30 minutes. […] A separate group of Sal-treated mice received no icv injection (None). Between 5 and 10 minutes later, all mice were given an intraperitoneal (ip) injection of 0.9% acetic acid and placed back in their observation chambers. For the next 30 minutes, the number of abdominal constrictions (lengthwise stretches of the torso with a concomitant concave arching of the back) were counted and recorded. Four mice in separate chambers were observed simultaneously by a single experimenter blind to drug condition.

mice [5] = system: mice; design: dose or concentration left out as unconfirmed

T1 sequence (P35370 whole entry): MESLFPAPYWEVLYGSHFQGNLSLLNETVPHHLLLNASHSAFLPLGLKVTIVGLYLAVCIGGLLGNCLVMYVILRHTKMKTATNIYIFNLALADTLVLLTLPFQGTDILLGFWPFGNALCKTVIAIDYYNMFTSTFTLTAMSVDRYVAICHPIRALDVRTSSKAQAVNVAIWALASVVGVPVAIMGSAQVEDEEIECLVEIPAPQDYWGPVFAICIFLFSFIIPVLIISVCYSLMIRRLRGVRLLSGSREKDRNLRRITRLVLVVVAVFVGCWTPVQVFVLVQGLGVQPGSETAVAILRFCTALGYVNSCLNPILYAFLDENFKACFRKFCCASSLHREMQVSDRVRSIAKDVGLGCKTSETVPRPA

Compound: C[C@@H](NC(=O)[C@@H](N)Cc1ccc(O)cc1)C(=O)NCC(=O)N(C)[C@@H](Cc1ccccc1)C(=O)NCCO [DAMGO, Tyr-DAla-Gly-Met-Phe-Gly-ol]
- specific binding of the radioactively-labeled ligand [1]: no specific binding

Compound: CC1(C)SSC(C)(C)[C@@H](NC(=O)[C@@H](N)Cc2ccc(O)cc2)C(=O)NCC(=O)N[C@@H](Cc2ccccc2)C(=O)N[C@H]1C(=O)O [DPDPE, c[D-penicillamine^2, D-penicillamine^5]enkephalin]
- specific binding of the radioactively-labeled ligand [1]: no specific binding

Compound: CCC12CCN(CC3(O)CC3)C(Cc3ccc(O)cc31)C2(C)C (stereo not shown) [bremacozine]
- specific binding of the radioactively-labeled ligand [1]: no specific binding

Compound: CN1CC[C@]23c4c5ccc(O)c4O[C@H]2[C@@H](O)CC[C@H]3[C@H]1C5 [dihydromorphine]
- specific binding of the radioactively-labeled ligand [1]: no specific binding

Compound: CC[C@]12CCN(CC3CC3)[C@H](C(=O)c3ccc(O)cc31)[C@@H]2C [ethylketocyclazocine]
- specific binding of the radioactively-labeled ligand [1]: no specific binding

Compound: CCC(=O)C(CC(C)N(C)C)(c1ccccc1)c1ccccc1 (stereo not shown) [methadone]
- Bmax [1]: 400-450 fentomoles/μg protein
- Kd [1]: ~0.1 nM
- specific binding of the radioactively-labeled ligand [1]: specific binding was found

Compound: CN1CC[C@]23c4c5ccc(O)c4O[C@H]2[C@@H](O)C=C[C@H]3[C@H]1C5 [morphine]
- duration of analgesia (mice [2]): about 2 hours
- time of peak analgesia (mice [2]; post-injection): 30 min
- decrease in body temperature (mice [3]; MOR 20 mg/kg i.p., DBA/2J mice): 6 °C
- Straub tail (mice [3]; morphine 20 mg/kg): produced Straub tail

Compound: C=CCN1CC[C@]23c4c5ccc(O)c4O[C@H]2C(=O)CC[C@@]3(O)[C@H]1C5 [naloxone]
- decreased number of abdominal constrictions due to SIA (mice [4]): reversed
- hyperalgesia in TW test (mice [5]): In no case did any mouse treated with OFQ or naloxone exhibit hyperalgesia
- stress-induced analgesia: post-injection increase in TW latency (mice [5]; 46° C. water, p<0.05): attenuated the 4 s post-injection increase in TW latency

Compound: β-endorphin
- specific binding of the radioactively-labeled ligand [1]: no specific binding
